The subject of test [1] is L. donovani strain MHOM/ET/67/L82 axenic amastigotes. In words: L. donovani axenic amastigote fluorescence assay; SI versus L6 cells. The test is classed as cell-based, Leishmania donovani. The following applies: for IC50: axenic amastigotes, 70 h, read-out: Compound activity L.D (IC50); for Selectivity Index L.D: relative to L6 cells. On the procedure: L6 rat skeletal myoblasts, [29] were purchased from the American Type Culture Collection (ATCC, Rockville, MD, USA; ATCC number CRL 1458). This cell line was used for cytotoxicity testing to calculate an SI against T.b. rhodesiense and screened alongside the T.b. rhodesiense, P. falciparum, T. cruzi and L. donovani assays. L6 were also the host cells for the T. cruzi assay. Assays were performed in 96-well microtiter plates, each well containing 100 µl of RPMI 1640 medium supplemented with 1% L-glutamine (200 mM), 10% FCS, and 4000 L6 cells. Serial drug dilutions of eleven 3-fold dilution steps covering a range from 100 to 0.002 µg/ml were prepared. After 70 hours of incubation the plates were inspected under an inverted microscope to assure growth of the controls and sterile conditions. Ten µl of resazurin solution (resazurin, 12.5 mg in 100 ml double-distilled water) was then added to each well and the plates incubated for another 2 hours. Then the plates were read with a Spectramax Gemini XS microplate fluorometer (Molecular Devices Cooperation, Sunnyvale, CA, USA) using an excitation wavelength of 536 nm and an emission wavelength of 588 nm. Data was analysed using the microplate reader software Softmax Pro (Molecular Devices, USA). Podophyllotoxin was used as a positive control in the assay.
Amastigotes of L. donovani strain MHOM/ET/67/L82 were grown in axenic culture at 37°C in SM medium at pH 5.4 supplemented with 10% heat-inactivated FCS under an atmosphere of 5% CO2 in air. One hundred µl of culture medium containing 10^5 amastigotes from axenic culture with or without a serial drug dilution were seeded in 96-well microtitre plates. Serial drug dilutions of eleven 3-fold dilution steps covering a range from 100 to 0.002 µg/ml were prepared. After 70 hours of incubation the plates were inspected under an inverted microscope to assure growth of the controls and sterile conditions. Ten µl of resazurin solution (12.5 mg resazurin dissolved in 100 ml distilled water) were then added to each well and the plates incubated for another 2 hours. The plates were then read with a Spectramax Gemini XS microplate fluorometer (Molecular Devices, USA) using an excitation wavelength of 536 nm and an emission wavelength of 588 nm. Data was analysed using the software Softmax Pro (Molecular Devices, USA). Decrease of fluorescence ( = inhibition) was expressed as percentage of the fluorescence of control cultures and plotted against the drug concentrations. From the sigmoidal inhibition curves the IC50 values were calculated. Miltefosine served as a known drug control in this assay.

For a further test, the system named is HEK293 cells. As to the kind of experiment: HEK293 Alamar Blue viability estimation assay. The test is classed as cell-based, human. The following applies: for IC50: Homo sapiens, HEK293. On the procedure:
T.b. brucei lister 427 cells were maintained in log phase growth in 25 cm^2 tissue culture flasks (Corning, NY, USA) by sub-culturing at either 24 or 48 hour intervals. Cells were grown in HMI-9 medium, supplemented with 10% fetal calf serum (FCS) and 100 IU/ml penicillin/streptomycin (Invitrogen, Carlsbad, California, USA) with incubation at 5% CO2 at 37°C in humidified conditions. HEK293 cells were maintained in high glucose DMEM with L-glutamine, supplemented with 1× non-essential amino acids (NEAA; Invitrogen, USA) and 1 mM sodium pyruvate. Growth conditions were in 5% CO2 at 37°C, under humidified conditions.
Cells at 80% confluence were harvested and diluted in growth medium (high glucose DMEM supplemented with 10% FCS) to 7.27×10^4 cells/ml. Under sterile conditions, 55 µl of diluted cells per well were added to a black, clear bottomed 384-well lidded plate (BD Biosciences, Bedford, MA, USA) with a Multidrop liquid handler (Thermo Scientific, Barrington, IL, USA). Incubation times, compound additions and plate read were as per the trypanosome viability assay, with the exception that Alamar Blue was diluted in HEK293 growth media before addition, and incubation of Alamar Blue at 37°C, in 5% CO2, was for 4 hours, followed by incubation at room temperature for 20 hours. The activity of compounds against HEK293 cells was used to calculate the SI of mammalian to T.b. brucei cells. The control compound for HEK293 cells was puromycin (Calbiochem, USA).
Compounds identified from primary screening were retested against both T.b. brucei and HEK293 cells in duplicate and at varying concentrations to obtain a dose-response curve. Thus, a 5 µl sample of fresh compound stock solution (5 mM in DMSO) was cherry picked into 384-well plates and diluted 1∶10 in dilution medium (high glucose DMEM without FCS). Serial dilutions of these samples were then prepared in the same media by a Minitrak robotic liquid handler (Perkin Elmer, USA). […] A screening dose of 10.4 µM was included in the dilution series to enable reconfirmation of primary screening T.b. brucei activity.
The DMSO working concentration in the serial dilutions was maintained at 5%, giving a final assay concentration of 0.42% DMSO, except for the 41.7 µM test compound solution, where as previously stated the corresponding DMSO concentration was 0.83% v/v. […] Therefore the 41.7 µM test compound sample with 0.83% v/v DMSO was not used in the T.b. brucei assay and thus the top test compound concentration in this assay was 20.8 µM.
Compound activity in the retest campaign was calculated as percentage inhibition in relation to positive and negative controls, in the same manner as the primary screening campaign. The positive controls, pentamidine (2 µM final concentration) for T.b. brucei and puromycin (8 µM final concentration) for HEK293, were both screened in whole 384-well control plates. Whole 384-well plate controls were included after every batch of 20 compound plates, and were comprised of half a plate of negative control and half a plate of positive control. The negative control was the vehicle, […]. The negative control was also included in column 24 of each compound assay plate to determine signal variation from plate to plate and to calculate compound activity. The exception was the 41.7 µM compound dose used in the HEK293 assay. In these plates column 24 contained 0.83% DMSO as a negative control. A separate 384-well plate containing a 13 point dose-response of the reference compounds puromycin, pentamidine and diminazene, in triplicate, was also included per 20 compound test plate batch to estimate assay sensitivity.
These compounds were retested as in dose for N of three replicates, as described above for both T.b. brucei and HEK293.

The mark [2] stands for this setting: pentamidine 1 µM, diminazene 40 µM.

Where two headings read alike, the source gives them in different places. Bounds are passed on as bounds.

For the compound `Cc1cc(O)nc(-n2nc(C)cc2NC(=O)C2CCCC2)n1` [Compound 4], the IC50 in test [1] (Leishmania donovani, L6, 70 h) worked out at 0.488 ± 0.154 µM. The “Selectivity Index L.D” value in test [1] amounted to 1.84.
In the same order, the values of `CCS(=O)(=O)N1CCCc2ccc(NS(=O)(=O)c3ccccc3F)cc21` [Compound 5] are 6.6 ± 1.56 µM and 3.29.
For the compound `O=C(Nc1ccc(Cl)c(-c2nc3ncccc3o2)c1)c1ccco1` [Compound 7], the IC50 is 1.8 µM in test [1] (Leishmania donovani, L6, 70 h); 1.82 ± 0.277 µM in test [1]; greater than 41.7 µM in the test with HEK293 cells (read-out: Restest IC50 HEK).
Turning to `N=C(N)c1ccc(OCCCCCOc2ccc(C(=N)N)cc2)cc1` [Pentamidine, pentamidine, reference compound], in the test with HEK293 cells (setting [2]), the “activity in the HEK293 assay at the doses screened, rescreening” value is “neither pentamidine nor diminazene displayed activity” and the “activity in the HEK293 assay at the doses screened, retest campaign” value is “Neither pentamidine nor diminazene displayed activity”.
In the case of `CCOc1ccc(OCc2ccc(C(=O)N3CCCC(C)C3)cc2)cc1` (centres unmarked) [Compound 3], the IC50 in test [1] (Leishmania donovani, L6, 70 h) is 16.1 ± 1.7 µM; in the test on HEK293 cells (read-out: Restest IC50 HEK) it was 41.7 µM. Besides, the “Selectivity Index L.D” value in test [1] was found to be 3.09.
On to `CCC(C)NC(=O)c1nc(-c2ccccc2)cnc1N` (centres unmarked) [Compound 6], for which the IC50 in test [1] (Leishmania donovani, L6, 70 h) was determined as 34 ± 5.6 µM. Also, the “Selectivity Index L.D” value in test [1] is on record as 0.525.
For the compound `O=C(NCCc1n[nH]c(-c2ccc(F)cc2)n1)c1cccc(F)c1` [Compound 2], the IC50 in test [1] (Leishmania donovani, L6, 70 h) was 47.3 ± 0.324 µM; with HEK293 cells (read-out: Restest IC50 HEK), 41.7 µM. Further, the “Selectivity Index L.D” value in test [1] turned out to be 2.53.
Regarding `COc1ccc(C[C@H](N)C(=O)N[C@H]2[C@@H](O)[C@H](n3cnc4c(N(C)C)ncnc43)O[C@@H]2CO)cc1` [Puromycin, puromycin, reference compound], the IC50 is 1.12 ± 0.155 µM in the test with HEK293 cells (reference compound, read-out: IC50 against HEK293, retest screening campaign) and 0.518 ± 0.0281 µM in the test on HEK293 cells (reference compound, read-out: IC50 in HEK293 assay, rescreening of resynthesized compounds).
For the compound `CCc1ccccc1N=C(NCCN1CCOCC1)NC(=O)c1ccccc1` [Compound 8], the IC50 in test [1] (Leishmania donovani, L6, 70 h) was greater than 263 µM.
Regarding `CC(C)(C)C(=O)NCCc1csc(-c2cccc(F)c2)n1` [Compound 1], the IC50 in test [1] (Leishmania donovani, L6, 70 h) was 46.1 ± 22.4 µM; in the test on HEK293 cells (read-out: Restest IC50 HEK), 41.7 µM. Further, the “Selectivity Index L.D” value in test [1] is given as 1.35.

Usually IC50 stands for the concentration that inhibits the measured activity by half.

The values are drawn from publication PMC3510080, “Identification of Compounds with Anti-Proliferative Activity against Trypanosoma brucei brucei Strain 427 by a Whole Cell Viability Based HTS Campaign” (PLoS Neglected Tropical Diseases, 2012).
